Test results from patent publication US12491204B2, “Use of oleanolic acid-28-O-beta-D-glucopyranoside in preparation of anti-colitis drug” (JILIN UNIVERSITY, priority 2023, dated 2025).

Tests used:
[1] = tested on: DSS-induced UC model mice; assay: DSS-induced UC model: body weight, DAI score, colon length, spleen coefficient; type: in vivo, BALB/c male mice; conditions: for weight loss rate: 3.5% DSS 7 days, gavage once a day Day 4 to Day 10, 28-OA-β-G 5, 10, 20 mg/kg
Procedure: (§1) SPF-grade BALB/c male mice (weighting 22-24 g) were purchased from Changchun Yisi Laboratory Animal Technology Co., Ltd. After 1 week of adaptive feeding, the mice were randomly divided into 6 groups (n=10), including: a control group, a model group, a positive drug group (5-ASA, 100 mg/kg), an oleanolic acid-28-O-β-D-glucopyranoside low-dose group (28-OA-β-GL, 5 mg/kg), an oleanolic acid-28-O-β-D-glucopyranoside medium-dose group (28-OA-β-GM, 10 mg/kg), and an oleanolic acid-28-O-β-D-glucopyranoside high-dose group (28-OA-β-GH, 20 mg/kg).
(§2) The control group was administrated with distilled water, while the other groups were freely allowed to drink a 3.5% dextran sulfate sodium (M.W.: 40,000 Da, DSS) solution for 7 days to induce a UC model. From the Day 4 to Day 10 of modeling, the mice in the control group and the model group were administrated with distilled water by gavage, while the mice in other groups were administrated with a 5-ASA or 28-OA-β-G solution by gavage, respectively. The gavage was performed once a day. The administration volume was 10 ml/kg. After fasting for 12 hours on the Day 10, whole blood was collected from all mice by using an eyeball blood collection method, the mice were killed by cervical dislocation, and colon tissues and spleen tissues were collected.
Body weight and disease activity index scores: during the experiment, all mice were weighed every day, and the general behavior states of the mice were observed; the weight changes, stool states and hematochezia degrees of the mice were recorded every day, and scored according to the criteria shown in Table 3; and an average disease activity index (DAI) score of the mice in each group per day was calculated according to the formula: DAI=(weight loss score+stool state score+hematochezia degree score)/3.
Spleen coefficient: the spleen tissues were dissected and accurately weighed, and the spleen coefficient was calculated using the formula: spleen coefficient=spleen mass (mg)/mouse weight (g), as shown in FIG. 10. The spleen coefficient also reflected the degree of inflammatory response within the body.

[2] = tested on: DSS-induced UC model mice; assay: Inflammatory factor and oxidative stress indicators by ELISA in serum and colon of DSS-induced UC model; type: in vivo, BALB/c male mice; conditions: compared with model group; for IL-6 level / TNF-α level / iNOS level: serum and colon, gavage 5-ASA 100 mg/kg, 28-OA-β-G 5, 10, 20 mg/kg
Procedure: SPF-grade BALB/c male mice (weighting 22-24 g) were purchased from Changchun Yisi Laboratory Animal Technology Co., Ltd. After 1 week of adaptive feeding, the mice were randomly divided into 6 groups (n=10), including: a control group, a model group, a positive drug group (5-ASA, 100 mg/kg), an oleanolic acid-28-O-β-D-glucopyranoside low-dose group (28-OA-β-GL, 5 mg/kg), an oleanolic acid-28-O-β-D-glucopyranoside medium-dose group (28-OA-β-GM, 10 mg/kg), and an oleanolic acid-28-O-β-D-glucopyranoside high-dose group (28-OA-β-GH, 20 mg/kg). The control group was administrated with distilled water, while the other groups were freely allowed to drink a 3.5% dextran sulfate sodium (M.W.: 40,000 Da, DSS) solution for 7 days to induce a UC model. From the Day 4 to Day 10 of modeling, the mice in the control group and the model group were administrated with distilled water by gavage, while the mice in other groups were administrated with a 5-ASA or 28-OA-β-G solution by gavage, respectively. The gavage was performed once a day. The administration volume was 10 ml/kg. After fasting for 12 hours on the Day 10, whole blood was collected from all mice by using an eyeball blood collection method, the mice were killed by cervical dislocation, and colon tissues and spleen tissues were collected. Content determination of inflammatory factor and oxidative stress indicators: serum and colon tissue samples were collected, and the contents of TNF-α, IL-6, and iNOS in the serum and colon were determined using an ELISA kit, while the levels of MPO, SOD, and MDA in the colon were detected.

[3] = tested on: DSS-induced UC model mice; assay: Transmission electron microscope observation of mouse colon tissues; type: in vivo, BALB/c male mice; conditions: 28-OA-β-GH group, 20 mg/kg; compared with model group
Procedure: as §1
as §2, with “collected. […]” for “collected.”

[4] = tested on: DSS-induced UC model mice; assay: FD4 permeability analysis in DSS-induced UC model; type: in vivo, BALB/c male mice; conditions: 20 mg/kg FD4 by gavage 30 minutes before sacrifice; 28-OA-β-G intervention; compared with model group
Procedure: as §1
The control group was administrated with distilled water, while the other groups were freely allowed to drink a 3.5% dextran sulfate sodium (M.W.: 40,000 Da, DSS) solution for 7 days to induce a UC model. […]
FD4 permeability analysis: all mice were administrated with 20 mg/kg FD4 normal saline solution by gavage 30 minutes before sacrifice, whole blood was collected by the eye blood collection method on a sterile ultra-clean table, and the upper serum was taken after centrifugation, and then aspirated into a black 96-well microplate. The fluorescence intensity was detected using a microplate reader at an excitation wavelength of 492 nm and an emission wavelength of 520 nm. […]

[5] = tested on: TNF-α, IL-6, and iNOS in Caco-2 cells; assay: Inflammatory factors TNF-α, IL-6, iNOS by ELISA in LPS-induced Caco-2 cell model; type: cell-based, Human; conditions: LPS 1 μg/ml, 24 hours; high-dose groups 8 μM
Procedure: (§3) (1) Determination of Transmembrane Epithelial Resistance and Inflammatory Factors in Caco-2 Cells
(§4) The Caco-2 cells were inoculated at a density of 1×10^5 cells/ml (400 μl per well) into a Transwell chamber and cultured under 5% CO2 and 37° C. After Day 21, a medium was replaced with a basal MEM medium. […] Resistance values were measured using a transmembrane resistance meter. TEER value=(measured resistance value−control resistance value)×Transwell chamber area, expressed in Ω·cm^2. […]

Caco-2 cells = assay: Transmembrane epithelial resistance (TEER) in LPS-induced Caco-2 cells; type: cell-based, Human; conditions: LPS 1 μg/ml + 28-OA-β-G 8 μM, 24 hours; compared with LPS treatment
Procedure: as §3, §4

[6] = tested on: ZO-1, Occludin, Claudin-1, and E-cadherin in Caco-2 cells; assay: Expression of tight junction proteins in Caco-2 cells by immunofluorescence; type: cell-based, Human; conditions: 24 hours
Procedure: (2) Determination of Expression Level of Tight Junction Proteins in Caco-2 Cells
Caco-2 cells (1×10^5 cells/ml) were inoculated onto a cell climbing slice in a 24-well plate (with 600 μl of cells per well), and reached confluence within 2 days. The cells were divided into 7 groups: a control group, a model group (LPS 1 μg/ml), a 5-ASA group (LPS 1 μg/ml+5-ASA 50 μM), an LPS+28-OA-β-GL group (LPS 1 μg/ml+28-OA-β-G 2 μM), an LPS+28-OA-β-GM group (LPS 1 μg/ml+28-OA-β-G 4 μM), an LPS+28-OA-β-GH group (LPS 1 μg/ml+28-OA-β-G 8 μM), and a 28-OA-β-G group (28-OA-β-G 8 μM). The control group was added with a MEM medium, while the other groups were added with the corresponding doses of LPS and 28-OA-β-G with the MEN medium as a solvent, and incubated in a 5% CO2, 37° C. constant-temperature incubator for 24 hours. Immunofluorescence imaging was performed after a series of treatments.

Nc1ccc(O)c(C(=O)O)c1 [5-ASA, 5-aminosalicylic acid, reference compound]
weight loss rate ([1]; 5-ASA 100 mg/kg): significantly reduced | spleen coefficient ([1]; positive drug group, 5-ASA 100 mg/kg, compared with model group): significantly reduced | IL-6 level [2]: significantly decreased | TNF-α level [2]: significantly decreased | iNOS level [2]: significantly decreased

CC1(C)CC[C@]2(C(=O)O[C@@H]3O[C@H](CO)[C@@H](O)[C@H](O)[C@H]3O)CC[C@]3(C)C(=CC[C@@H]4[C@@]5(C)CC[C@H](O)C(C)(C)[C@@H]5CC[C@]43C)[C@@H]2C1 [28-OA-β-G, Oleanolic acid-28-O-β-D-glucopyranoside]
ultrastructure of colonic mucosa cells (transmission electron microscope) [3]: restored the integrity of intestinal mucosa cells | weight loss rate ([1]; 5-ASA 100 mg/kg): significantly reduced | weight changes, relation to dose ([1]; 28-OA-β-G 5, 10, 20 mg/kg gavage): positively correlated with the increase in dose | spleen coefficient ([1]; 28-OA-β-G high-dose group, 20 mg/kg, compared with model group): significantly reduced | spleen coefficient ([1]; 28-OA-β-G medium-dose group, 10 mg/kg, compared with model group): significantly reduced | weight changes ([1]; 28-OA-β-GH group, 20 mg/kg gavage): tended towards the control group | anti-ulcerative-colitis activity (overall conclusion) ([1]; DSS-induced UC model, compared with positive control 5-ASA): significant anti-ulcerative-colitis activity which was not statistically different from that of the positive control group of 5-ASA | DAI score compared to the 5-ASA group ([1]; Day 10, 28-OA-β-GH group, 20 mg/kg, 5-ASA 100 mg/kg): no significant difference compared to the 5-ASA group | DAI score ([1]; Day 10, 28-OA-β-GH group, 20 mg/kg, compared with model group): significantly lower than that in the model group | colon length (degree of colon damage) ([1]; oral administration of 28-OA-β-G 5, 10, 20 mg/kg, compared with model group): effectively alleviated | serum FD4 concentration (FD4 permeability) [4]: significantly reduced | MDA level ([2]; colon): dose-dependently reduce | MPO level ([2]; colon): dose-dependently reduce | SOD level ([2]; colon): increased | IL-6 level [2]: significantly decreased | TNF-α level [2]: significantly decreased | iNOS level [2]: significantly decreased | anti-inflammatory activity (TNF-α, IL-6, iNOS levels), comparison among compounds [5]: best anti-inflammatory activity among the high-dose administration groups | TEER value (Caco-2 cells): significantly increased | distribution on the cell membrane and expression of the four tight junction proteins (ZO-1, Occludin, Claudin-1, E-cadherin) ([6]; LPS 1 μg/ml + 28-OA-β-G 2, 4, 8 μM, as dose increased): regained their normal distribution on the cell membrane and also increase the expression | expression of the four tight junction proteins (ZO-1, Occludin, Claudin-1, E-cadherin) ([6]; normal cells without LPS, 28-OA-β-G alone 8 μM): not affected
